Common to all, as to assay: Bliss interaction score (quartile over a dose matrix) (fitness difference); higher = more antagonism (negative = synergy)
Experiment [1] concerns B. subtilis 168. The essentials:
(§1)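 Values were capped at 1 after dividing OD595 at stationary-phase entry by the plate's robust no-drug mean. This ratio is fitness, and single-drug fitness was inferred from the combination data. The Bliss score is observed minus product-expected fitness, given as quartiles over technical, biological and donor/recipient replicates.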

Experiment [2] relates to S. aureus Newman. The essentials: as §1
Experiment [3] concerns S. pneumoniae D39V. The essentials:
as §1

Experiment [4] concerns S. aureus DSM 20231. The essentials: as §1

This is an account of results in the supplement of paper PMC10627819.
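Also: first quartile when negative (synergy) and third quartile when positive (antagonism).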

For `CC1=C(C(=O)O)N2C(=O)[C@@H](NC(=O)[C@H](N)c3ccccc3)[C@H]2SC1` [Cephalexin] + C[C@@H](O)[C@H]1C(=O)N2C(C(=O)O)=C(SCCNC=N)C[C@H]12 [Imipenem], the Bliss interaction score in experiment [1] is -0.104; in experiment [2], -0.0579; in experiment [3], -0.237; in experiment [4], 0.0677.

As for `CC1=C(C(=O)O)N2C(=O)[C@@H](NC(=O)[C@H](N)c3ccccc3)[C@H]2SC1` [Cephalexin] + C[C@H]1COc2c(N3CCN(C)CC3)c(F)cc3c(=O)c(C(=O)O)cn1c23 [Levofloxacin], the Bliss interaction score is -0.0126 in experiment [1], 0.0499 in experiment [2], -0.152 in experiment [3] and -0.037 in experiment [4].

With `CC1=C(C(=O)O)N2C(=O)[C@@H](NC(=O)[C@H](N)c3ccccc3)[C@H]2SC1` [Cephalexin] + C[C@H]1c2cccc(O)c2C(=O)C2=C(O)[C@]3(O)C(=O)C(C(N)=O)=C(O)[C@@H](N(C)C)[C@@H]3[C@@H](O)[C@@H]21 [Doxycycline], the Bliss interaction score in experiment [1] was -0.0302; in experiment [2], 0.0562; in experiment [3] it was 0.183; in experiment [4], 0.0912.

As for `CC1=C(C(=O)O)N2C(=O)[C@@H](NC(=O)[C@H](N)c3ccccc3)[C@H]2SC1` [Cephalexin] + N[C@@H]1CONC1=O [CycloserineD], the Bliss interaction score in experiment [1] was -0.0367; in experiment [2], -0.0487; in experiment [3] it was -0.117; in experiment [4] it was 0.0763.

Turning to `CC1=C(C(=O)O)N2C(=O)[C@@H](NC(=O)[C@H](N)c3ccccc3)[C@H]2SC1` [Cephalexin] + O=C(N[C@H](CO)[C@H](O)c1ccc([N+](=O)[O-])cc1)C(Cl)Cl [Chloramphenicol], the Bliss interaction score in experiment [1] is -0.069; in experiment [2], 0.0789; in experiment [3], 0.113; in experiment [4], 0.0832.

For `CC1=C(C(=O)O)N2C(=O)[C@@H](NC(=O)[C@H](N)c3ccccc3)[C@H]2SC1` [Cephalexin] + O=C(O)[C@H]1/C(=C/CO)O[C@@H]2CC(=O)N21 [Clavulanic], the Bliss interaction score is -0.0461 in experiment [1], -0.0674 in experiment [2], -0.14 in experiment [3] and 0.0895 in experiment [4].

As to `CC1=C(C(=O)O)N2C(=O)[C@@H](NC(=O)[C@H](N)c3ccccc3)[C@H]2SC1` [Cephalexin] + O=C(O)c1cn(C2CC2)c2cc(N3CCNCC3)c(F)cc2c1=O [Ciprofloxacin], the Bliss interaction score in experiment [1] was -0.084; in experiment [2], 0.067; in experiment [3] it was -0.138; in experiment [4], 0.0694.

As to `CC1=C(C(=O)O)N2C(=O)[C@@H](NC(=O)[C@H](N)c3ccccc3)[C@H]2SC1` [Cephalexin] + O=C(O[C@@H]1Cc2c(O)cc(O)cc2O[C@@H]1c1cc(O)c(O)c(O)c1)c1cc(O)c(O)c(O)c1 [EGCG], the Bliss interaction score in experiment [1] is -0.0668; in experiment [2] it was -0.115; in experiment [3] it was 0.0582; in experiment [4], -0.071.

Turning to `CC1=C(C(=O)O)N2C(=O)[C@@H](NC(=O)[C@H](N)c3ccccc3)[C@H]2SC1` [Cephalexin] + Oc1cc(Cl)ccc1Oc1ccc(Cl)cc1Cl [Triclosan], the Bliss interaction score in experiment [1] was found to be 0.0637; in experiment [2] it was 0.024; in experiment [3], 0.0582; in experiment [4] it was 0.0867.

Consider `O=C(O)[C@H]1/C(=C/CO)O[C@@H]2CC(=O)N21` [Clavulanic] + CC1(C)S[C@@H]2[C@H](NC(=O)Cc3ccccc3)C(=O)N2[C@H]1C(=O)O [PenicillinG], for which the Bliss interaction score in experiment [1] was -0.351; in experiment [2] it was -0.128; in experiment [3], 0.0529; in experiment [4], -0.147.

As for `O=C(O)[C@H]1/C(=C/CO)O[C@@H]2CC(=O)N21` [Clavulanic] + CC1=C\[C@@H](O)CC(=O)Cc2nc(co2)C(=O)N2CCC=C2C(=O)O[C@H](C(C)C)[C@H](C)/C=C/C(=O)NC\C=C\1 [Virginiamycin M1], the Bliss interaction score in experiment [1] is 0.0376; in experiment [2] it was -0.0599; in experiment [3], 0.0495; in experiment [4], 0.0872.

As for `O=C(O)[C@H]1/C(=C/CO)O[C@@H]2CC(=O)N21` [Clavulanic] + CC(=O)NC[C@H]1CN(c2ccc(N3CCOCC3)c(F)c2)C(=O)O1 [Linezolid], the Bliss interaction score in experiment [1] was 0.0747; in experiment [2], 0.242; in experiment [3], -0.1; in experiment [4], -0.196.

`O=C(O)[C@H]1/C(=C/CO)O[C@@H]2CC(=O)N21` [Clavulanic] + CC(=O)O[C@H]1C[C@@]2(C)[C@@H](C[C@@H](O)[C@H]3[C@@]4(C)CC[C@@H](O)[C@@H](C)[C@@H]4CC[C@@]32C)/C1=C(\CCC=C(C)C)C(=O)O [Fusidic acid]: the Bliss interaction score was -0.0604 in experiment [1], 0.209 in experiment [2], -0.0441 in experiment [3] and -0.265 in experiment [4].

In the case of `O=C(O)[C@H]1/C(=C/CO)O[C@@H]2CC(=O)N21` [Clavulanic] + CC(C1CCC(C(O1)OC2C(CC(C(C2O)OC3C(C(C(CO3)(C)O)NC)O)N)N)N)NC [Gentamicin], the Bliss interaction score is 0.105 in experiment [1] (main component drawn), 0.288 in experiment [2] (main component drawn), 0.0396 in experiment [3] (main component drawn) and -0.273 in experiment [4] (main component drawn).

With `O=C(O)[C@H]1/C(=C/CO)O[C@@H]2CC(=O)N21` [Clavulanic] + CCC(C)C1C(=O)NC(=C)C(=O)NC(C(=O)NC(CSCC(C(=O)N1)NC(=O)/C(=C/C)/NC(=O)C(C(C)CC)N)C(=O)NC2C(SCC(NC(=O)CNC(=O)C3CCCN3C2=O)C(=O)NC(CCCCN)C(=O)NC4C(SCC(NC(=O)CNC(=O)C(NC(=O)C(NC(=O)C(NC(=O)CNC4=O)C)CC(C)C)CCSC)C(=O)NC(CC(=O)N)C(=O)NC(CCSC)C(=O)NC(CCCCN)C(=O)NC5C(SCC6C(=O)NC(C(=O)NC(CSC(C(C(=O)N6)NC(=O)C(NC5=O)C)C)C(=O)NC(CO)C(=O)NC(C(C)CC)C(=O)NC(CC7=CN=CN7)C(=O)NC(C(C)C)C(=O)NC(=C)C(=O)NC(CCCCN)C(=O)O)CC8=CN=CN8)C)C)C)CC(C)C [Nisin], the Bliss interaction score in experiment [1] (main component drawn) was -0.0543; in experiment [2] (main component drawn) it was 0.255; in experiment [3] (main component drawn) it was -0.0543; in experiment [4] (main component drawn), 0.105.
